Laboratory results taken from patent publication US20220031680A1, “Donecopride As Neuroprotective Agent In the Treatment of Neurodegenerative Diseases” (priority 2018, published 2022).
Marks after values point to notes of the source that are not given here.

Experiments:
[1] = test system: rat primary hippocampal neurons injured with Aβ 1-42; experiment: Survival and neurite network of MAP-2 neurons in primary hippocampal neurons injured with Aβ1-42; format: cell-based; conditions: for MAP-2 neurite network (% of control) / MAP-2 neurons (% of control) / Neurite network/MAP-2 neurons (% of control): Aβ 1-42 (20 μM) 24 h; for MAP-2 neurons (% of control): 1 h preincubation; for Neurite network/MAP-2 neurons (% of control): neurite network normalized by number of neurons
Description: Rat hippocampal neurons were cultured as described by Callizot et al. (2013) J. Neurosci. Res. 91706-716. Pregnant female rats of 17 days gestation (Rats Wistar; Janvier Labs France) were killed using a deep anesthesia with CO2 chamber followed by a cervical dislocation. Then, fetuses were removed from the uterus and immediately placed in ice-cold L15 Leibovitz medium with a 2% penicillin (10,000 U/ml) and streptomycin (10 mg/ml) solution (PS) and 1% bovine serum albumin (BSA). Hippocampal neurons were treated for 20 min at 37° C. with a trypsin-EDTA solution at a final concentration of 0.05% trypsin and 0.02% EDTA. The dissociation was stopped by adding Dulbecco's modified Eagle's medium (DMEM) with 4.5 g/l of glucose, containing DNAse I grade II (final concentration 0.5 mg/ml) and 10% fetal calf serum (FCS). Cells were mechanically dissociated by three forced passages through the tip of a 10-ml pipette and then centrifuged at 515×g for 10 min at 4° C. The supernatant was discarded, and the pellet was resuspended in a defined culture medium consisting of Neurobasal medium with a 2% solution of B27 supplement, 2 mmol/l of L-glutamine, 2% of PS solution, and 10 ng/ml of brain-derived neurotrophic factor (BDNF). Viable cells were counted in a Neubauer cytometer, using the trypan blue exclusion test. Cells were seeded at a density of 20,000 per well in 96-well plates precoated with poly-L-lysine and cultured at 37° C. in an air (95%)-CO2 (5%) incubator. The medium was changed every 2 days.
(§1) The hippocampal neurons were exposed with Aβ solutions (see below) after 17 days of culture. The Aβ1-42 preparation was done following the procedure described by Callizot et al. (2013) J. Neurosci. Res. 91706-716. Briefly, Aβ1-42 peptide was dissolved in the defined culture medium mentioned above, at an initial concentration of 40 μM. This solution was gently agitated for 3 days at 37° C. in the dark and immediately used after being properly diluted in culture medium to the concentrations used (20 μM (plate 1) or 2.5 μM (plate 2) corresponding to 2 μM or 0.25 μM of oligomers (AβO) respectively).
(§2) Donecopride fumarate was solved in culture medium and preincubated 1 h before Aβ application. Aβ1-42 preparation was added to a final concentration of 20 or 2.5 μM (=2 μM or 0.25 μM of AβO, evaluated by automatic Western Blot) diluted in control medium in presence of Donecopride.
Donecopride fumarate (Donecopride) was tested on one culture in a 96 well plate (6 wells per conditions). The compound was preincubated one hour before Aβ application. The following conditions were assessed:
(§3) 24 hours after intoxication, the hippocampal neurons were fixed by a cold solution of ethanol (95%) and acetic acid (5%) for 5 min at −20° C. After permeabilization with 0.1% of saponin, cells were incubated for 2 h with:
a) chicken polyclonal antibody anti microtubule-associated-protein 2 (MAP-2), diluted at 1/1000 in PBS containing 1% fetal calf serum and 0.1% of saponin (this antibody allows the specific staining of neuronal cell bodies and neurites; and allow the study of neuronal cell death and neurite network).
(§4) For each condition, 30 pictures (representative of the whole well area) per well were taken using ImageXpress (Molecular Devices) at 20× magnification. All images were taken with the same acquisition parameters. Analyses were performed automatically by using Custom Module Editor (Molecular Devices).
(§5) The following endpoints were assessed: • Total number of neurons (neuron survival, number of MAP-2 positive neurons) • Neurite network (in μm of MAP-2 positive neurons) • area of tau in neurons (μm^2, overlapping with MAP-2 positive neurons).
All values are expressed as mean+/−SEM. Statistical analysis was performed by one-way ANOVA, followed by PLSD Fisher's test, p<0.05 were considered significant.
Rat hippocampal neurons were cultured as described by Callizot et al. (2013) J. Neurosci. Res. 91:706-716. […]

Tau (AT100) = experiment: Phosphorylation of Tau (AT100) in MAP-2 hippocampal neurons injured with Aβ1-42; format: cell-based, rat; conditions: for Area of Tau (AT100)/neurons (% of control): Aβ 1-42 (20 μM) 24 h; for concentration of maximal effect on Tau hyperphosphorylation: Aβ1-42 injured hippocampal neurons
Description: as §1, §2, §3
b) mouse monoclonal antibody anti-phospho Tau (AT100) at dilution of 1/400 in PBS containing 1% fetal calf serum and 0.1% of saponin.
as §4, §5
Injury: The hippocampal neurons were exposed with Aβ solutions (see below) after 17 days of culture. The Aβ1-42 preparation was done following the procedure described by Callizot et al. (2013) J. Neurosci. Res. 91:706-716. The batch number of the Aβ1-42 used in this study contains 10% of oligomers (quantification by WB as performed in Combes et al. (2015) J. Neurosci. Res. 93:633-643). Briefly, Aβ1-42 peptide was dissolved in the defined culture medium mentioned above, at an initial concentration of 40 μmol/1. This solution was gently agitated for 3 days at 37° C. in the dark and immediately used after being properly diluted in culture medium to the concentrations used (20 μmol/l or 2.5 μmol/l corresponding to 2 μmol/l or 0.25 μmol/l of oligomers (AβO) respectively). Aβ1-42 preparation was added to a final concentration of 20 or 2.5 μmol/l (respectively 2 μmol/l or 0.25 μmol/l of AβO, determined by automatic WB) diluted in control medium in presence of the compounds.
Immunostaining: MAP-2/AT100—After fixation and permeabilization, cells were incubated for 2 hours with: • a chicken polyclonal antibody anti microtubule-associated-protein 2 (MAP-2) at dilution of 1/1000 in PBS containing 1% fetal calf serum and 0.1% saponin (this antibody stains specifically cell bodies and neurites, allowing study of neuronal cell death and neurite network); and • a mouse monoclonal antibody anti-phospho Tau (AT100) at dilution of 1/100 in PBS containing 1% fetal calf serum and 0.1% saponin.
For each condition, 30 pictures (representative of the whole well area) per well were taken using ImageXpress® (Molecular Devices) with 20× magnification. All images were generated using the same acquisition parameters. From images, analyses were directly and automatically performed by Custom Module Editor® (Molecular Devices). The following read-outs were investigated: • Total number of neurons (neuron survival, number of MAP-2 positive neurons) • Neurite network (in μm of MAP-2 positive neurons) • Area of AT100 (μm^2, overlapping with MAP-2 positive neurons).

[2] = Aβ1-42 injured hippocampal neurons, Example 4

## COc1cc(N)c(F)cc1C(=O)CCC1CCN(CC2CCCCCC2)CC1 [MR36014]
[1]; pM doses, Aβ1-42 injured hippocampal neurons, Example 5 (FIG. 11)
  neuroprotective effect (survival, neurite network, Tau hyperphosphorylation): neuroprotective effect was also observed at pM doses

## COc1cc(N)c(Cl)cc1C(=O)CCC1CCN(CC2CCCCC2)CC1 [Donecopride]
Tau (AT100); 1 nM
  Area of Tau (AT100)/neurons (% of control): 204 % of control
Tau (AT100); 5 nM
  Area of Tau (AT100)/neurons (% of control): 201 % of control
Tau (AT100); 10 nM
  Area of Tau (AT100)/neurons (% of control): 175 % of control
Tau (AT100); 50 nM
  Area of Tau (AT100)/neurons (% of control): 161* % of control
Tau (AT100); 100 nM
  Area of Tau (AT100)/neurons (% of control): 154* % of control
Tau (AT100); 500 nM
  Area of Tau (AT100)/neurons (% of control): 152* % of control
Tau (AT100); 1 μM
  Area of Tau (AT100)/neurons (% of control): 198 % of control
[1]; 1 nM
  MAP-2 neurite network (% of control): 64 % of control
  MAP-2 neurons (% of control): 70 % of control
  Neurite network/MAP-2 neurons (% of control): 90 % of control
[1]; 5 nM
  MAP-2 neurite network (% of control): 69 % of control
  MAP-2 neurons (% of control): 69 % of control
  Neurite network/MAP-2 neurons (% of control): 99 % of control
[1]; 10 nM
  MAP-2 neurite network (% of control): 68 % of control
  MAP-2 neurons (% of control): 73 % of control
  Neurite network/MAP-2 neurons (% of control): 96 % of control
[1]; 50 nM
  MAP-2 neurite network (% of control): 71* % of control
  MAP-2 neurons (% of control): 74 % of control
  Neurite network/MAP-2 neurons (% of control): 91 % of control
[1]; 100 nM
  MAP-2 neurite network (% of control): 73* % of control
  MAP-2 neurons (% of control): 78* % of control
  Neurite network/MAP-2 neurons (% of control): 93 % of control
[1]; 500 nM
  MAP-2 neurite network (% of control): 79* % of control
  MAP-2 neurons (% of control): 79* % of control
  Neurite network/MAP-2 neurons (% of control): 100 % of control
[1]; 1 μM
  MAP-2 neurite network (% of control): 76* % of control
  MAP-2 neurons (% of control): 62* % of control
  Neurite network/MAP-2 neurons (% of control): 124* % of control

## COc1cc2c(cc1OC)C(=O)C(CC1CCN(Cc3ccccc3)CC1)C2 (stereo not shown) [Donepezil, reference compound]
Tau (AT100); 1 μM
  Area of Tau (AT100)/neurons (% of control): 151* % of control
[1]; 1 μM
  MAP-2 neurite network (% of control): 92* % of control
  MAP-2 neurons (% of control): 82* % of control
  Neurite network/MAP-2 neurons (% of control): 113* % of control

## COc1cc(N)c(F)cc1C(=O)CCC1CCN(CC2CCCCC2)CC1 [Flucopride]
Tau (AT100)
  concentration of maximal effect on Tau hyperphosphorylation: 50 nM
[1]; [2]
  neuroprotective effect (survival, neurite and synaptic network): strong neuroprotective effect
[1]; Aβ1-42 injured hippocampal neurons, bell shaped curve (FIGS. 1A-C)
  concentration of maximum effect on survival and neurite network: 100 nM

## COc1cc(N)c(F)cc1C(=O)CCC1CCN(CC2CCCC2)CC1 [MR33583]
Tau (AT100)
  concentration of maximal effect on Tau hyperphosphorylation: 50 to 100 nM
[1]; Aβ1-42 injured hippocampal neurons (FIGS. 7 and 8)
  active concentrations (neuroprotective effect): 50 to 500 nM
[1]; [2]
  effect on neurite network: strong effect on neurite network was observed at almost every tested dose
  neuroprotective effect (survival, neurite and synaptic network): neuroprotective effect following a bell shaped curved
